According to patent US4082735A, “Novel immunological adjuvant compounds and methods of preparation thereof” (Syntex (U.S.A.) Inc., priority 1976, dated 1978):

What was measured:
[1] = tested on: guinea pigs; test: Delayed hypersensitivity to arsanilic tyrosine, skin test after immunisation with antigen mixture plus test compound in FIA; assay type: in vivo; settings: relative to FIA = 1; dose 50 μg per guinea pig, subcutaneous in FIA emulsion; skin test day 14, read at 24 hours
Method: (§1) The antigen mixture used consists of 20 μg. of arsanilic tyrosine and 100 μg. of protein [either bovine serum albumin (BSA) or ovalbumin]. The antigen mixture and the compounds to be tested, at the dose levels per guinea pig shown in the Table below, are dissolved in saline and emulsified with an equal volume of Freund's Incomplete Adjuvant (FIA). Groups of ten guinea pigs are used for each test compound and each guinea pig is injected with 0.1 ml. of the above emulsion, subcutaneously, in the nuchal region. Control groups are given the antigen mixture alone emulsified with FIA.
After 14 days, all animals are skin tested using 25 μg arsanilic tyrosine conjugated to either BSA or ovalbumin (BSA is used in this test when ovalbumin is present in the antigen mixture and vice versa) which is given in 0.1 ml saline intradermally in the flanks of the animals. […] Thus, the procedure is as follows: skin tests with a high degree of infiltration are scored as ++ and assigned the number 3; those with a lesser degree are scored as + and given the number 2, whereas skin reactions with no infiltration are scored as zero and assigned the number 1. […]

[2] = tested on: guinea pigs; test: Antibody titre (antibovine serum albumin or antiovalbumin antibodies) by passive hemagglutination or Farr radioimmune assay; assay type: in vivo; settings: relative to FIA = 1; dose 50 μg per guinea pig, subcutaneous in FIA emulsion; sera day 42
Method: as §1
On day 42 all animals are bled by cardiac puncture and the sera assayed for antibovine serum albumin or antiovalbumin antibodies by the passive hemagglutination technique or by radiommune assay using the Farr techbique (P. Minden and R.S. Farr in "Handbook of Experimental Immunology", edited by D.M. Weir, Chapter 15, Volume 1, Blackwell Scientific Publications, Oxford) using 125 iodine labeled bovine serum albumin. Average potencies of these assays are presented in Column 2 of the Table below relative to FIA having the value of one.

[3] = tested on: cats; test: Side effects in cats after inoculation; assay type: in vivo, cat; settings: 1500 μg per kilogram
Description: B. Seven cats were divided into groups and inoculated with the amounts of compounds (per kilogram of body weight) as shown in the following Table: […]

[4] = tested on: dogs; test: Side effects in dogs after inoculation; assay type: in vivo, dog; settings: 4 dogs
Description: A. 48 Dogs were divided into groups and inoculated with the amounts of compound (per kilogram of body weight) as shown in the following Table: […]

| Molecule | Average Potency, Delayed Hypersensitivity to Arsanilic Tyrosine [1] | Average Potency, Antibody Titre [2] | condition at 24 hours post-inoculation ([3]; 3 cats) | food intake ([3]; 3 cats) | general condition following inoculation ([3]; 3 cats) | diarrhea ([3]; 3 cats, 2-5 hours post-inoculation) | vomiting, number of times ([3]; 3 cats, over a period of 2-5 hours post-inoculation) | rectal temperature, peak ([3]; seven hours post-inoculation) [° F] | dogs showing severe depression, excessive salivation and vomiting ([4]; 240 μg per kilogram of body weight) | dogs showing severe depression, excessive salivation and vomiting ([4]; 600 μg per kilogram of body weight) | dogs showing severe depression, excessive salivation and vomiting ([4]; 1500 μg per kilogram of body weight) |
| --- | --- | --- | --- | --- | --- | --- | --- | --- | --- | --- | --- |
| 2-acetamido-2-deoxy-D-glucos-3-O-yl-acetyl-L-prolyl-D-isoglutamine | 5.4 | 8.0 |  |  |  |  |  |  |  |  |  |
| CC(=O)N[C@H]1C(O)O[C@H](CO)[C@@H](O)[C@@H]1OC(C)C(=O)N[C@H](C)C(=O)N[C@H](CCC(=O)O)C(N)=O (stereo partly drawn) [2-(2-acetamido-2-deoxy-D-glucos-3-0-yl)-D-propionyl-L-alanyl-D-isoglutamine] | 3.3 | 3.7 | all animals had returned to normal | Food was refused | became depressed and unkempt | All animals had diarrhea | 4-6 times | 104 | two of the dogs | All of the dogs | All of the dogs |
